The subject of one assay is snoRNAs. Description: Gene expression profiling (Illumina HumanHT 12) of ABC DLBCL cell lines. In kind it is cell-based. The note with it: 500 nM, 4-8 h; two ABC DLBCL cell lines. On the procedure:
(§1) Cell lines were exposed to YK-4-279 or TK-216, alone or in combination with other compounds, for 72 h using a Tecan D300e Digital Dispenser and 96 well plates. Cell proliferation was measured with MTT. Synergy was determined with the Chou-Talalay combination index. Gene expression profiling (GEP) was performed with the Illumina HumanHT 12 Expression BeadChips. In vivo studies were done in NOD-SCID mice and treatments started with 60 mm3 tumor volumes sc.
With the aim to understand the mechanism of action of YK-4-279 and TK-216, the baseline RNA expression levels of the different ETS factors were correlated with sensitivity to the drugs. SPIB was the gene presenting the most significant negative correlation with both YK-4-279 and TK-216, especially among the ABC DLBCL cell lines (P<0.05). SPIB is a known oncogene for ABC DLBCL (Lenz et al, PNAS 2008) and is involved in the response to lenalidomide in ABC DLBCL (Yang et al, Cancer Cell 2012). YK-4-279 inhibits the binding of EWS1-FLI1 to the helicases RHA and DDX5 (Selvanathan et al, PNAS 2012). Thus, it was assessed whether YK-4-279 and TK-216 can have a similar effect on SPIB and whether they induce cellular effects similar to lenalidomide. […] In ABC DLBCL, the ETS inhibitor YK-4-279 and its clinical derivative TK-216 interfere with SPIB and helicases involved in RNA editing. […]

A further assay deals with HL-60. Description: 72 hr CellTiter-Glo, AML cell line. It is filed as cell-based. For orientation: ATP-based viability assays read luminescence as a measure of living cells.
For the next assay, the system named is Kasumi-1. Description: 72 hr CellTiter-Glo, AML cell line. It is filed as cell-based.
A further assay deals with ML-2. Nature of the assay: 72 hr CellTiter-Glo, AML cell line. In kind it is cell-based.
Another assay concerns MOLM-13. Description: 72 hr CellTiter-Glo, AML cell line. It is filed as cell-based.
The next assay deals with MOLM-16. Nature of the assay: 72 hr CellTiter-Glo, AML cell line. It is filed as cell-based.
Another assay concerns THP-1. Nature of the assay: 72 hr CellTiter-Glo, AML cell line. In kind it is cell-based.
The test system of a further assay is TMD8 cells xenografts. Nature of the assay: TMD8 ABC-DLBCL xenograft in NOD-SCID mice. It is filed as in vivo. The note with it: 100 mg/Kg, BID; n=9. Here is the method:
NOD-Scid mice subcutaneously inoculated with TMD8 cells (15×10^6) were split in two groups respectively treated with TK-216 (100 mg/kg, BID, po, n=9) and control vehicle (n=10). In each box-plot, the line in the middle of the box represents the median and the box extends from the 25th to the 75th percentile (interquartile range, IQ); the whiskers extend to the upper and lower adjacent values (i.e., ±1.5 IQ).
56 lymphoma cell lines [27 diffuse large B cell lymphoma (DLBCL); 10 mantle cell lymphoma; 6 marginal zone lymphoma; 5 anaplastic large T-cell lymphoma; 8 others] were exposed to TK-216 increasing doses for 72 h using a Tecan D300e Digital Dispenser and 384 well plates. Cell proliferation was measured with MTT. In vivo study was done in NOD-SCID mice; treatments were started with approximately sc 60 mm3 tumor volumes. Sensitivity was not affected by the lymphoma cell of origin (B vs T; activated B cell type DLBCL versus germinal center type DLBCL) or MYC and TP53 status. There was a non-statistically significant trend for lower sensitivity in cell lines bearing BCL2 chromosomal translocation (P=0.07, DLBCL only; P=0.06, all cell lines).
(§2) The latter synergism could be linked to the previously mentioned negative trend between TK-216 IC50 values and the presence of BCL2 translocation.
as §1

A further assay has as its system DLBCL cell lines. Nature of the assay: Combination with other targeted agents, summary over DLBCL cell lines. In kind it is cell-based. The note with it: with lenalidomide; four DLBCL cell lines (2 ABC, 2 GCB). Here is the method: as §2, §1
Since lenalidomide is active in mantle cell lymphoma (MCL), the synergism of the combination of TK-216 and lenalidomide was confirmed also in two MCL cell lines.

For the next assay, the target named is T1, SPIB to DDX5 (Homo sapiens, UniProt Q01892).
T1 construct: endogenous in cells
Nature of the assay: Co-IP of SPIB with helicases in ABC DLBCL cell lines. The following applies: 500 nM, 4-10 h. It is filed as cell-based. The text has this: (§3) With the aim to understand the mechanism of action of YK-4-279 and TK-216, the baseline RNA expression levels of the different ETS factors were correlated with sensitivity to the drugs. SPIB was the gene presenting the most significant negative correlation with both YK-4-279 and TK-216, especially among the ABC DLBCL cell lines (P<0.05). SPIB is a known oncogene for ABC DLBCL (Lenz et al, PNAS 2008) and is involved in the response to lenalidomide in ABC DLBCL (Yang et al, Cancer Cell 2012). YK-4-279 inhibits the binding of EWS1-FLI1 to the helicases RHA and DDX5 (Selvanathan et al, PNAS 2012). Thus, it was assessed whether YK-4-279 and TK-216 can have a similar effect on SPIB and whether they induce cellular effects similar to lenalidomide. […] In ABC DLBCL, the ETS inhibitor YK-4-279 and its clinical derivative TK-216 interfere with SPIB and helicases involved in RNA editing. Moreover, both compounds act similarly to lenalidomide inhibiting IRF4 and upregulating IRF7 and synergize with the IMID in both ABC DLBCL and MCL.

For the next assay, the target named is T2, SPIB to RHA (Homo sapiens, UniProt Q01892).
T2 construct: endogenous in cells
The assay is described as above. It is filed as cell-based. The following applies: 500 nM, 4-10 h.
Excerpt: as §3

T2 sequence (Q01892 whole entry): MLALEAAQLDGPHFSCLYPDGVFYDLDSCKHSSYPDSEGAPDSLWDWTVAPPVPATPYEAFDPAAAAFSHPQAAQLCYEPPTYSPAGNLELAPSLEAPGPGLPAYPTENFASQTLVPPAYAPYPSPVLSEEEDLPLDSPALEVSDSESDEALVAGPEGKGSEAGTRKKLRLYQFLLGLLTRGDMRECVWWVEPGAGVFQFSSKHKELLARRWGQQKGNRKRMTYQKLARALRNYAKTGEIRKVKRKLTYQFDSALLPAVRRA
T1 sequence (Q01892 whole entry): as above

For the compound `COc1ccc(C(=O)C[C@@]2(O)C(=O)Nc3c(Cl)ccc(Cl)c32)cc1` [(S)-YK-4-279], in the assay on snoRNAs, the “snoRNA expression (GEP)” value is listed as “important upregulation of multiple snoRNAs”.

For the compound `N.N.[Cl][Pt][Cl]` [Cisplatin, reference compound], the IC50 (commonly the concentration at which inhibition is half-maximal) in the assay on HL-60 came to 1.93 µM; with Kasumi-1 it was 4.56 µM; with ML-2 it was 1.4 µM; in the assay on MOLM-13 it was 0.798 µM; in the assay with MOLM-16, 2.19 µM; in the assay with THP-1 it was 1.36 µM.

In the case of `COc1ccc(C(=O)CC2(O)C(=O)Nc3c(Cl)ccc(Cl)c32)cc1` (centres unmarked) [YK-4-279, 4,7-dichloro-3-hydroxy-3-(2-(4-methoxyphenyl)-2-oxoethyl)indolin-2-one, reference compound], the “tumor growth compared with control group” value in the assay with TMD8 cells xenografts is “reduction in tumor growth”. For the same compound, the “combination of YK-4-279 plus lenalidomide” value in the assay with DLBCL cell lines is recorded as “synergism in both ABC DLBCL”. For the same compound, on SPIB to DDX5, the “binding of SPIB to DDX5” value is “to a lesser extent, to DDX5 was decreased”. Also, the “binding of SPIB to RHA” value on SPIB to RHA was “decreased”.
